Data: patent publication US5672470A, “Microbial process for detection of toxic substances” (priority 1994, dated 1997)
Values after ≈ are worked out from the molar mass of the structure shown. Values joined by “and” are separate entries in the source; they are usually repeats but may differ in a detail not shown here. Equal entries are not always repeated. Where two headings read alike, the source gives them in different places.

How the values were obtained:
[1] = test system: bacteria phosphotransferase system (PTS) of E. coli mutant 1219bgl+; test: microbe, parasite or virus in culture; type: cell-based; conditions: for IC50: pH 6.5, read-out: EC50
Excerpt: Since the phosphotransferase system for the bacterial cell is an essential transport system for the reception of extracellular carbohydrates, a possible inhibition or adverse effect of the participating enzymes should be noticed to cause a reduction in the carbohydrate transport, that is the PTS constitutes a potential possibility for the detection of toxic substances in microorganisms. […] Said analog is of such a nature that it, in phosphorylated form after the cell transport, can be hydrolyzed by an enzyme in the bacterial cell under the release of a substance susceptible to analysis. If, for instance, 2-nitrophenyl-β-D-glucoside is used as substrate analog, this will be channeled by the PTS under phosphorylation into a bacterial cell, where the ONP-Glc-6-P is broken down hydrolytically by the inducible 6-phospho-β-glucosidase B to Glc-6-P and 2-nitrophenyl. The released 2-nitrophenyl can then, by means of photometry, be quantitatively measured as phenolate-anion after a defined time span. Additionally, with E. coli mutant 1219bgl+ a bacterium is present that is characterized by increased β-glycoside activity, yet is not transformed through genetic engineering nor is pathogenic, which is an important prerequisite for harmless work with bacteria.
The test occurs with a total reaction volume of 500 μl in Eppendorf cups, the O.D.578 of the bacteria suspension amounting to 3.0.
The E. coli cultures of the mutant 1219 bgl+, preserved at -20° C., are first thawed to be reactivated during 10 min. at room temperature. They are then suspended in 250 μl of 50 mM buffer and together with the appropriate test solution and distilled water brought to a volume of 480 μl . This suspension is then pre-incubated over a time span of 10-15 minutes at 37° C. After that, the reaction is started by adding 20 μl of ONP-glucose (50 mM) (equivalent to a final concentration in the reaction batch of 2 mM). The reaction mixture is incubated over a time span of 5 minutes at 37° C. After the end of this reaction time the reaction is terminated by adding 1 ml of Na2 CO3 (0.5M). After a 2 minute centrifugation at 17,000×g the substrate transformations of the tested bacteria suspensions are photometrically determined at 405 nm.
The evaluation of the PTS test with ONP-glycosides is done by means of the toxicological characteristic quantity of the "efficient concentration", (the EC value). It is hereinunder understood with such a concentration of added toxic substance that a measurable parameter of an organism will be inhibited to a certain extent within a freely defined time span. The percentage of adverse effect of the parameter to be measured is indicated by the attached index.
The conversion of the registered percentage inhibitory values into EC values is carried out with the help of the gamma method (Johnson, F. H., Eyring, H. and Stover, B. J., 1974; The theory of rate processes in biology and medicine, John Wiley & Sons, New York: 1-385). With the aid of the O.D.405, registered in the PTS inhibition test, the quotient is formed from the ONP-glycoside cleavage output and the remaining ONP-glycoside cleavage. [formula] O.D.405 : Substrate transformation without toxic substance solution. D O.D.405 : Output of the substrate transformation after incubation with the toxic substance solution.
The gamma values hereby obtained are used against the employed concentration of toxic substance, in a double logarithmic representation. […]

Vibrio fischen = conditions: cited from earlier work
[2] = test system: E. coli mutant 1219bgl+ PTS; test: ONP-glycoside cleavage in dependency on substrate concentration (Lineweaver-Burk); type: cell-based; conditions: Lineweaver-Burk process
Description: Looking more closely into the ONP-glycoside cleavage in dependency on substrate concentration, we find the presence of saturation kinetics without substrate inhibition (FIG. 4). […] Since, when increasing the substrate concentration, there was no further velocity increase to be registered, the dosage of the substrate to be used, according to the invention, takes place in accord with a cost and efficiency weighting at 2 mM. When performing the PTS inhibition test, in accordance with the invention, it also turned out that the sensitivity of the test is clearly dependent on the kind of buffer used. It was particularly conspicuous that phosphate buffer has a clearly stimulating effect on the ONP-glycoside hydrolysis, whereas, on the other hand, when performing the inhibition test with heavy metals as toxic substances, the strongest inhibitory effects were to be registered when using the HEPES buffer. It should however be taken into account that a phosphate buffer in the presence of heavy metal salts is less suitable due to solubility problems that then might occur. Therefore when testing heavy metals, the HEPES buffer should preferably be chosen.

[3] = Escherichia coli, pH 6.5, read-out: EC10, organic solvents, 50 mM phosphate buffer pH 6.5
[4] = heavy metal ions as chlorides, HEPES buffer pH 6.5, 37° C., 5 min reaction, 5 min
[5] = heavy metal ions as chlorides, HEPES buffer pH 6.5, 37° C., 5 min reaction, read-out: EC50
[6] = reaction time 10 min, Beckmann, 1980
[7] = organic solvents, 50 mM phosphate buffer pH 6.5

ClC(Cl)Cl [Chloroform, chloroform]
IC50 ([1]; Escherichia coli, 5 min): 1900 µg/mL (≈ 15.9 mM)
EC50 ([1]; Escherichia coli, pH 6.5): 15900 µM
IC10 [1, 3]: 720 µg/mL and 6 µM
Bioluminescent Inhibition Test EC50 (ppm) (Vibrio fischen; vibrio fischeri luminescence): 1,168

[Zn+2] [Zn^2+]
EC50 [1, 4]: 8 ppm
EC50 [1, 5]: 122 µM
Bioluminescent Inhibition Test EC50 (ppm) (Vibrio fischen; [6]): 25.4 ppm

CCO [Ethanol, ethanol]
IC50 ([1]; Escherichia coli, 5 min): 33000 µg/mL (≈ 716 mM)
IC10 [1, 3]: 10500 µg/mL and 288 µM
EC10 [1, 7]: approx. 10,500 ppm
Bioluminescent Inhibition Test EC50 (ppm) (Vibrio fischen; vibrio fischeri luminescence): 31,000

ClCCCl [Dichloroethane, dichloroethane]
inhibition of ONP-glucose transformation ([1]; at approx. 3,500 ppm (approximative 35 μM as printed), phosphate buffer pH 6.5, no extrapolation to gamma values possible): about 30%

[Cr+3] [Cr^3+]
EC50 [1, 4]: 16 ppm

C1COCCO1 [Dioxan, dioxan]
IC50 ([1]; Escherichia coli, 5 min): 30000 µg/mL (≈ 340 mM)
IC10 [1, 3]: 10000 µg/mL and 114 µM
EC10 [1, 7]: approx. 10,000 ppm

[Ni+2] [Ni^2+]
maximal inhibition ([1]; HEPES buffer pH 6.5): about 70%
EC50 [1, 4]: 4.5 ppm
EC50 [1, 5]: 76.6 µM

[Cd+2] [Cd^2+]
EC50 [1, 4]: 19 ppm
EC50 [1, 5]: 169 µM
Bioluminescent Inhibition Test EC50 (ppm) (Vibrio fischen; [6]): 131 ppm

[Pb+2] [Pb^2+]
EC50 [1, 4]: 67 ppm
EC10 ([1]; heavy metal ions as chlorides, HEPES buffer pH 6.5, 37° C., 5 min reaction, listed as Pb^+): 120 µM
EC50 [1, 5]: 322 µM
Bioluminescent Inhibition Test EC50 (ppm) (Vibrio fischen; reaction time 30 min, Beckmann, 1981): 0.4 ppm

[Cu+2] [Cu^2+]
EC50 [1, 4]: 11 ppm
EC50 [1, 5]: 173 µM
Bioluminescent Inhibition Test EC50 (ppm) (Vibrio fischen; [6]): 16 ppm

O=[N+]([O-])c1ccccc1O[C@@H]1O[C@H](CO)[C@@H](O)[C@H](O)[C@H]1O [ONP-glycoside, 2-nitrophenyl-β-D-glucoside]
Km [2]: 2000 µM
maximal reaction velocity [2]: 42 nmol/min/mL

CCCCCCCCCCCCOS(=O)(=O)O [SDS]
IC50 ([1]; Escherichia coli, 5 min): 13 µg/mL (≈ 0.0488 mM)
EC50 ([1]; Escherichia coli, pH 6.5): 45.1 µM
IC10 ([1]; Escherichia coli, pH 6.5, read-out: EC10, detergents, 50 mM HEPES buffer pH 6.5): 5.5 µg/mL and ~19 µM

Oc1ccccc1 [Phenol, phenol]
IC50 ([1]; Escherichia coli, 5 min): 1400 µg/mL (≈ 14.9 mM)
EC50 ([1]; Escherichia coli, pH 6.5): 14900 µM
IC10 [1, 3]: 350 µg/mL and 3.7 µM
Bioluminescent Inhibition Test EC50 (ppm) (Vibrio fischen; vibrio fischeri luminescence): 25

Triton X-100
EC50 ([1]; detergents, 50 mM HEPES buffer pH 6.5, 5 min): 180 ppm

[Hg+2] [Hg^2+]
maximal inhibition ([1]; HEPES buffer pH 6.5): about 70%
EC50 [1, 4]: 2.1 ppm
EC50 [1, 5]: 10.3 µM
Bioluminescent Inhibition Test EC50 (ppm) (Vibrio fischen; reaction time 5 min, Bulich et al., 1981): 0.065 ppm

Cc1ccccc1 [Toluene, toluene]
IC50 ([1]; Escherichia coli, 5 min): 35 µg/mL (≈ 0.38 mM)
EC50 ([1]; Escherichia coli, pH 6.5): 380 µM
